# Tests used:
# Assay type in all cases: cell-based
# A2780 cells = test: Cell proliferation assay (A2780); conditions: Homo sapiens, 168 h, 7 days
# Protocol: (§1) Cells are counted, diluted to desired density and 40 μL of cell suspension is added into each 384-well tissue-culture treated plates. Plates are incubated in Tissue Culture incubator at 37° C./5% C02 overnight.
# (§2) Next day, 40 nl test compounds that are prepared from source plates are transferred to the seeded cells from overnight. Plates are incubated at 37° C./5% C02 for a total of 7 days. After 7-day incubation, plates are equilibrated to room temperature and 30 ul of Cell Counting-Lite is added to each well for a 30 min incubation followed by reading on EnVision.
# (§3) The letter codes for the cell proliferation assay in A2780, HCC1806, and MDA-MB-436 cells include: A (<10 nM), B (>10-100 nM), C (>100-1000 nM), D (>1000-10000 nM), E (>10000 nM), and “-” is not tested.
# MDA-MB-436 cells = test: Cell proliferation assay (MDA-MB-436); conditions: Homo sapiens, 168 h, 7 days
# Protocol: as §1, §2, §3
# [1] = system: Poly/Mono-ADP Ribose in U2OS cells; test: PAR in cell western assay (parylation) in U2OS cells; conditions: Homo sapiens; U2OS cells, 6 hrs, 2 mM H2O2; read-out: Parylation (U2OS)
# Protocol: U2OS cells are seeded at 2667 cells per well in 24 ul medium into poly-D lysine-coated 384 well plate and incubated in the TC incubator for O/N
# The next day, test comps are diluted in a source plate and 6 μL of the diluted comp is added to the cell plate; mixed well and incubated for 6 hrs. DNA damage is induced with 2 mM H2O2 for 10 min. After discarding the medium, cells are fixed in ice cold Methanol at for 20 min at −20C. After a wash step at room temperature, cells are permeabilized with 0.05% NP-40 in PBS for 10 min, followed by wash steps. Cells are blocked with 1% BSA, at room temperature for 1 hr. Cells are stained with anti mono/polyADP ribose antibody (E6F6A, Cell signaling, 1:5000) in 1×PBS/1% BSA/0.05% Tween o/n at 4C.
# Next Day, cells are washed and incubated with anti-Rabbit 800CV (Licor antibody, 1:500) and CellTag 700 (Licor, 1:800) in 1×PBS/1% BSA/0.05% Tween for 1 h. After washing, plates are scanned using LICOR and are quantified.
# Parylation inhibition is reported as % control inhibition.
# (§4) The letter codes for the PARP1-enzyme assay include: A (<1 nM), B (>1-10 nM), C (>10-100 nM), D (>100-1000 nM), E (>1000 nM), and “-” is not tested. The letter codes for the PARP trapping assay, and parylation assay include: A (<10 nM), B (>10-100 nM), C (>100-1000 nM), […], E (>10000 nM), and “-” is not tested.
# PARP1 = PARP1 (Homo sapiens, UniProt P09874); test: PARP trapping assay in U2OS cells; design: endogenous in cells; host or cells: U2OS; conditions: U2OS cells, MMS, 4 hrs; read-out: PARP Trapping (U2OS)
# Protocol: U2OS cells are seeded at 15,000 cells/well in 90 ul medium and incubated in the TC incubator for overnight.
# Next day, test compounds are prepared in a source plate along with addition of DNA damage reagent MMS simultaneously and 10 ul of the diluted mixture is added to the cell plate and incubated for 4 hrs under T/C conditions.
# After 4 hrs, following aspiration and washing, add 100 ul of cold cytoskeleton removal buffer (0.5% Triton X-100) and incubated for 10 min. At the end of incubation, slowly the buffer is removed, and cells are fixed with ice cold MeOH for 15 min at −20C. Followed by wash steps, cells are blocked with 1×PBS/3% BSA/0.05% Tween for 1 h at room temperature.
# Cells are stained with anti PARP1 antibody (abeam ab227244, 1:1000), in 1×PBS/1% BSA overnight at 4C.
# Wash and add DAPI, scan cells in Celigo.
# Data Analysis: DAPI staining is used to segment nuclei and AF488 fluorescence intensity per nucleus is measured.
# as §4
# HCC1806 cells = test: Cell proliferation assay (HCC1806); conditions: Homo sapiens, 168 h, 7 days
# Protocol: as §1, §2, §3
# Sequence of PARP1 (P09874 whole entry): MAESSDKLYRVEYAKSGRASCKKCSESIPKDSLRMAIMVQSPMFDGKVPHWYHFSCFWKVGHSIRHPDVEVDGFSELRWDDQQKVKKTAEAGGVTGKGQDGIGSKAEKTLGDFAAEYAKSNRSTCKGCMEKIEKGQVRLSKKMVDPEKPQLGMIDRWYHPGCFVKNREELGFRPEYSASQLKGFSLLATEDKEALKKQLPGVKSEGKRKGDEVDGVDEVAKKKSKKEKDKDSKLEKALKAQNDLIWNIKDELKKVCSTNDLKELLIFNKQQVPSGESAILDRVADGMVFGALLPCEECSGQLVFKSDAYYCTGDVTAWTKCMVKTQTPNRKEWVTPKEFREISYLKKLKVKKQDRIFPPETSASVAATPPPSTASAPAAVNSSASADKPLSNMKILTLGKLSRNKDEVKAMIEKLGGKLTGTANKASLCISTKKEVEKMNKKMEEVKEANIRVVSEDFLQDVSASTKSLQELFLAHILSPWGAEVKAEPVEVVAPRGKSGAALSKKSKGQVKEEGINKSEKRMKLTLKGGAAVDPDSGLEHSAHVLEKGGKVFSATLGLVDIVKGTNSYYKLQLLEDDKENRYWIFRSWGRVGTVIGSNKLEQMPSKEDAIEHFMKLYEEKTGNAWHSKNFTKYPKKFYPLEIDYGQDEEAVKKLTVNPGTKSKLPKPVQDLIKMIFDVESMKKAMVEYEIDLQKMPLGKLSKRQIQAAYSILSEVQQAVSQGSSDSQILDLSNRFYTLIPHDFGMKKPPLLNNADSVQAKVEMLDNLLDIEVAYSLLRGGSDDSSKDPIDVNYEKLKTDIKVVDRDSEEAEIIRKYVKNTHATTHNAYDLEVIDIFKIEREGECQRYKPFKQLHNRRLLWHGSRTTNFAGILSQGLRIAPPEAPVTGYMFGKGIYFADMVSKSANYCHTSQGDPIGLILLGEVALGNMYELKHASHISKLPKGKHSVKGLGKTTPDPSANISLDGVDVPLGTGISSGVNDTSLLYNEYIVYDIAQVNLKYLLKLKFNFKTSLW
SMILES,IC50 (A2780 cells),IC50 (MDA-MB-436 cells),IC50 [1],IC50 (PARP1),IC50 (HCC1806 cells)
O=C(N[C@@H](C(=O)N1CCN(CC23CCC(C(=O)N4CCN(C(=O)c5cc(Cc6n[nH]c(=O)c7ccccc67)ccc5F)CC4)(CC2)CO3)CC1)C1CCCCC1)c1cccc([C@H]2CCCN(C(=O)CNC3CC3)C2)c1 (racemic) [Compound I-381],10 to 100 nM,10 to 100 nM,100 to 1000 nM,< 10 nM,
CCOc1cc(OC)ccc1CNCC(=O)N1CCCC(c2ccc(F)c(C(=O)N[C@@H](C(=O)N3CCN(CC4CCN(CC(=O)N5CCN(C(=O)c6cc(Cc7n[nH]c(=O)c8ccccc78)ccc6F)CC5)CC4)CC3)C3CCCCC3)c2)C1 (some centres unmarked) [Compound I-308],100 to 1000 nM,100 to 1000 nM,10 to 100 nM,10 to 100 nM,
CCc1cccc(-c2cnc(C(=O)N3CCC(CN4CCN(CC(=O)N5CCN(C(=O)c6cc(Cc7n[nH]c(=O)c8ccccc78)ccc6F)CC5)CC4)CC3)c(NC(=O)CN3CCOCC3)c2)c1 [Compound I-333],100 to 1000 nM,10 to 100 nM,10 to 100 nM,100 to 1000 nM,
O=C(N[C@@H](C(=O)N1CCN(CC(=O)N2CCN(C(=O)c3cc(Cc4n[nH]c(=O)c5ccccc45)ccc3F)CC2)CC1)C1CCCCC1)c1cc(C2CCCN(C(=O)C3CC3)C2)ccc1F (some centres unmarked) [Compound I-453],10 to 100 nM,10 to 100 nM,100 to 1000 nM,100 to 1000 nM,
O=C(N[C@@H](C(=O)N1CCN(CC(=O)N2CCN(C(=O)c3cc(Cc4n[nH]c(=O)c5ccccc45)ccc3F)CC2)CC1)C1CCCCC1)c1cccc(C2CCCN(C(=O)C3CC3)C2)c1F (some centres unmarked) [Compound I-454],10 to 100 nM,100 to 1000 nM,10 to 100 nM,100 to 1000 nM,
O=C(N[C@@H](C(=O)N1CCC(OC2CCN(CC(=O)N3CCN(C(=O)c4cc(Cc5n[nH]c(=O)c6ccccc56)ccc4F)CC3)CC2)CC1)C1CCCCC1)c1cccc(C2CCCN(C(=O)C34CC(C3)C4)C2)c1F (some centres unmarked) [Compound I-637],,100 to 1000 nM,100 to 1000 nM,10 to 100 nM,10 to 100 nM
O=C(CN1CCN(C[C@@H]2C[C@@H]3CC[C@H]2CN3C(=O)c2c(F)cc(-c3ccccc3)cc2F)CC1)N1CCN(C(=O)c2cc(Cc3n[nH]c(=O)c4ccccc34)ccc2F)CC1 [Compound I-777],10 to 100 nM,< 10 nM,10 to 100 nM,,10 to 100 nM
CC(C)(C)C(=O)N1CCC[C@H](c2cccc(C(=O)N[C@@H](C(=O)N3CCC(OC4CCN(CC(=O)N5CCN(C(=O)c6cc(Cc7n[nH]c(=O)c8ccccc78)ccc6F)CC5)CC4)CC3)C3CCCCC3)c2F)C1 [Compound I-910],10 to 100 nM,< 10 nM,100 to 1000 nM,,10 to 100 nM
C[C@@H]1CN(CC2CCN(CC(=O)N3CCN(C(=O)c4cc(Cc5n[nH]c(=O)c6ccccc56)ccc4F)CC3)CC2)CCN1C(=O)[C@H](NC(=O)c1cccc([C@@H]2CCCN(C(=O)C(C)(C)C)C2)c1)C1CCCCC1 [Compound I-973],100 to 1000 nM,10 to 100 nM,100 to 1000 nM,,100 to 1000 nM

# Further lines, results first:
IC50 (A2780 cells),IC50 (MDA-MB-436 cells),IC50 [1],IC50 (PARP1),IC50 (HCC1806 cells),SMILES
10 to 100 nM,< 10 nM,10 to 100 nM,10 to 100 nM,,O=C(N[C@@H](C(=O)N1CCN(CC23CCC(C(=O)N4CCN(C(=O)c5cc(Cc6n[nH]c(=O)c7ccccc67)ccc5F)CC4)(CC2)CO3)CC1)C1CCCCC1)c1cccc(C2CCCN(C(=O)CNC3CC3)C2)c1 (some centres unmarked) [Compound I-380]
10 to 100 nM,< 10 nM,10 to 100 nM,10 to 100 nM,,O=C(N[C@@H](C(=O)N1CCN(CC23CCC(C(=O)N4CCN(C(=O)c5cc(Cc6n[nH]c(=O)c7ccccc67)ccc5F)CC4)(CC2)CO3)CC1)C1CCCCC1)c1cccc([C@@H]2CCCN(C(=O)CNC3CC3)C2)c1 [Compound I-382]
100 to 1000 nM,< 10 nM,100 to 1000 nM,100 to 1000 nM,,CCc1cccc(-c2cc(N)c(C(=O)N3CCC(CN4CCN(CC(=O)N5CCN(C(=O)c6cc(Cc7n[nH]c(=O)c8ccccc78)ccc6F)CC5)CC4)CC3)c(F)c2)c1 [Compound I-409]
10 to 100 nM,< 10 nM,100 to 1000 nM,10 to 100 nM,,CCc1cccc(-c2cnc(C(=O)N3CCC(CC(=O)N4CCN(C(=O)c5cc(Cc6n[nH]c(=O)c7ccccc67)ccc5F)CC4)CC3)c(NC(=O)CNCc3cccc(C)c3)c2)c1 [Compound I-412]
10 to 100 nM,< 10 nM,10 to 100 nM,100 to 1000 nM,,CCc1cccc(-c2cnc(C(=O)N3CCC(CN4CCN(CC(=O)N5CCN(C(=O)c6cc(Cc7n[nH]c(=O)c8ccccc78)ccc6F)CC5)CC4)CC3)c(C#N)c2)c1 [Compound I-419]
,< 10 nM,< 10 nM,10 to 100 nM,10 to 100 nM,O=C(CN1CCC(OC2CCN(C(=O)c3c(F)cc(-c4ccccc4)cc3F)CC2)CC1)N1CCN(C(=O)c2cc(Cc3n[nH]c(=O)c4ccccc34)ccc2F)CC1 [Compound I-634]
,< 10 nM,100 to 1000 nM,10 to 100 nM,10 to 100 nM,CC1(C(=O)N2CCCC(c3cccc(C(=O)N[C@@H](C(=O)N4CCC(OC5CCN(CC(=O)N6CCN(C(=O)c7cc(Cc8n[nH]c(=O)c9ccccc89)ccc7F)CC6)CC5)CC4)C4CCCCC4)c3F)C2)CC1 (some centres unmarked) [Compound I-660]
,< 10 nM,100 to 1000 nM,10 to 100 nM,10 to 100 nM,CC(C)(C)C(=O)N1CCCC(c2cccc(C(=O)N[C@@H](C(=O)N3CCC(OC4CCN(CC(=O)N5CCN(C(=O)c6cc(Cc7n[nH]c(=O)c8ccccc78)ccc6F)CC5)CC4)CC3)C3CCCCC3)c2F)C1 (some centres unmarked) [Compound I-661]
,< 10 nM,< 10 nM,10 to 100 nM,10 to 100 nM,O=C(CN1CCC(OC2CCN(C(=O)c3ncc(-c4ccccc4)cc3F)CC2)CC1)N1CCN(C(=O)c2cc(Cc3n[nH]c(=O)c4ccccc34)ccc2F)CC1 [Compound I-709]
,< 10 nM,10 to 100 nM,10 to 100 nM,10 to 100 nM,O=C(N[C@@H](C(=O)N1CCC(CC(=O)N2CCN(C(=O)c3cc(Cc4n[nH]c(=O)c5ccccc45)ccc3F)CC2)CC1)C1CCCCC1)c1cccc(C2CCCN(C(=O)C3CC3)C2)c1F (some centres unmarked) [Compound I-715]
,< 10 nM,< 10 nM,< 10 nM,10 to 100 nM,O=C(CN1CCC(OC2CCN(C(=O)c3c(F)cc(-c4ccncc4)cc3F)CC2)CC1)N1CCN(C(=O)c2cc(Cc3n[nH]c(=O)c4ccccc34)ccc2F)CC1 [Compound I-727]
,< 10 nM,10 to 100 nM,10 to 100 nM,10 to 100 nM,CC1(C)CC(c2ccc(C(=O)N[C@@H](C(=O)N3CCC(OC4CCN(CC(=O)N5CCN(C(=O)c6cc(Cc7n[nH]c(=O)c8ccccc78)ccc6F)CC5)CC4)CC3)C3CCCCC3)c(F)c2)CCN1C(=O)C1CC1 (some centres unmarked) [Compound I-743]
,< 10 nM,10 to 100 nM,10 to 100 nM,10 to 100 nM,O=C(N[C@@H](C(=O)N1CCC(OC2CCN(CC(=O)N3CCN(C(=O)c4cc(Cc5n[nH]c(=O)c6ccccc56)ccc4F)CC3)CC2)CC1)C1CCCCC1)c1ccc(N2CCN(C(=O)C3CC3)CC2)cc1F [Compound I-745]
10 to 100 nM,< 10 nM,10 to 100 nM,,10 to 100 nM,O=C(CN1CCN(C[C@@H]2C[C@H]3CC[C@@H]2CN3C(=O)c2c(F)cc(-c3ccccc3)cc2F)CC1)N1CCN(C(=O)c2cc(Cc3n[nH]c(=O)c4ccccc34)ccc2F)CC1 [Compound I-774]
